{"source": "the supplement of paper PMC11061612", "assay_in_all_cases": "Bliss excess, mean over the matrix (fraction); higher = more synergy", "key": {"[1]": {"tested_on": "ALL-PO (B-Lymphoblastic Leukemia)", "outline": "(§1)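 Bliss excess equals the observed combination effect minus the expected value EA + EB − EA·EB, where EA and EB are the effects of each agent alone. Combination Emax is the second-highest inhibition within the matrix. Inhibition was scaled from CellTiter-Glo 2.0 luminescence, with 0 set by vehicle wells and 1 by blank wells, after 72 hours of two-drug dosing of cells plated in 1536-well plates.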"}, "[2]": {"tested_on": "BFTC-909 (Kidney Carcinoma)", "outline": "as §1"}, "[3]": {"tested_on": "CAL-33 (Oral Cavity Carcinoma)", "outline": "as §1"}, "[4]": {"tested_on": "ESS-1 (Other Solid Carcinomas)", "outline": "as §1"}, "EW-11 (Ewing's Sarcoma)": {"tested_on": "EW-11 (Ewing's Sarcoma)", "outline": "as §1"}, "[5]": {"tested_on": "FTC-133 (Thyroid Gland Carcinoma)", "outline": "as §1"}, "GAMG (Glioblastoma)": {"tested_on": "GAMG (Glioblastoma)", "outline": "as §1"}, "[6]": {"tested_on": "HH (T-Cell Non-Hodgkin's Lymphoma)", "outline": "as §1"}, "[7]": {"tested_on": "HuCCT1 (Biliary Tract Carcinoma)", "outline": "as §1"}, "[8]": {"tested_on": "L-428 (Hodgkin's Lymphoma)", "outline": "as §1"}, "[9]": {"tested_on": "LNZTA3WT4 (Low Grade Glioma)", "outline": "as §1"}, "LOXIMVI (Melanoma)": {"tested_on": "LOXIMVI (Melanoma)", "outline": "as §1"}, "[10]": {"tested_on": "MHH-CALL-2 (B-Lymphoblastic Leukemia)", "outline": "as §1"}, "NCI-H2052 (Mesothelioma)": {"tested_on": "NCI-H2052 (Mesothelioma)", "outline": "as §1"}, "[11]": {"tested_on": "NCI-H209 (Small Cell Lung Carcinoma)", "outline": "as §1"}, "[12]": {"tested_on": "NUGC-4 (Gastric Carcinoma)", "outline": "as §1"}, "[13]": {"tested_on": "OV-56 (Ovarian Carcinoma)", "outline": "as §1"}, "[14]": {"tested_on": "OVCAR-5 (Ovarian Carcinoma)", "outline": "as §1"}, "[15]": {"tested_on": "SW1710 (Bladder Carcinoma)", "outline": "as §1"}, "[16]": {"tested_on": "YAPC (Pancreatic Carcinoma)", "outline": "as §1"}}}
{"compound": "CC1(C)CCC(CN2CCN(c3ccc(C(=O)NS(=O)(=O)c4ccc(NCC5CCOCC5)c([N+](=O)[O-])c4)c(Oc4cnc5[nH]ccc5c4)c3)CC2)=C(c2ccc(Cl)cc2)C1", "note": "[Venetoclax] + C[C@@H](Nc1cc(F)cc(F)c1)c1cc(C(=O)N(C)C)cc2c(=O)cc(N3CCOCC3)oc12 [AZD8186] (first compound max 1 µM, 7x7, partner max 3 µM)", "values": [{"measurement": "Bliss excess", "setting": "[1]", "value": 0.202}, {"measurement": "Bliss excess", "setting": "[2]", "value": 0.0073}, {"measurement": "Bliss excess", "setting": "[3]", "value": -0.0241}, {"measurement": "Bliss excess", "setting": "[4]", "value": -0.0118}, {"measurement": "Bliss excess", "setting": "EW-11 (Ewing's Sarcoma)", "value": -0.0227}, {"measurement": "Bliss excess", "setting": "[5]", "value": -0.0168}, {"measurement": "Bliss excess", "setting": "GAMG (Glioblastoma)", "value": -0.0453}, {"measurement": "Bliss excess", "setting": "[6]", "value": 0.0221}, {"measurement": "Bliss excess", "setting": "[7]", "value": -0.0383}, {"measurement": "Bliss excess", "setting": "[8]", "value": 0.0037}, {"measurement": "Bliss excess", "setting": "[9]", "value": -0.0539}, {"measurement": "Bliss excess", "setting": "LOXIMVI (Melanoma)", "value": -0.0243}, {"measurement": "Bliss excess", "setting": "[10]", "value": 0.0163}, {"measurement": "Bliss excess", "setting": "NCI-H2052 (Mesothelioma)", "value": -0.0266}, {"measurement": "Bliss excess", "setting": "[11]", "value": 0.1}, {"measurement": "Bliss excess", "setting": "[12]", "value": 0.0298}, {"measurement": "Bliss excess", "setting": "[13]", "value": -0.0178}, {"measurement": "Bliss excess", "setting": "[14]", "value": -0.0495}, {"measurement": "Bliss excess", "setting": "[15]", "value": -0.0826}, {"measurement": "Bliss excess", "setting": "[16]", "value": -0.048}]}
{"compound": "Cc1c2c(nn1C)CSCc1cc(n(C)n1)CSc1cc(c3ccccc3c1)OCCCc1c(C(=O)O)n(C)c3c-2c(Cl)ccc13", "note": "[AZD5991] + Cn1cnc2c(F)c(Nc3ccc(Br)cc3Cl)c(C(=O)NOCCO)cc21 [Selumetinib] (first compound max 1 µM, 7x7, partner max 3 µM)", "values": [{"measurement": "Bliss excess", "setting": "[1]", "value": 0.0056}, {"measurement": "Bliss excess", "setting": "[2]", "value": 0.0607}, {"measurement": "Bliss excess", "setting": "[3]", "value": 0.0814}, {"measurement": "Bliss excess", "setting": "[4]", "value": 0.0083}, {"measurement": "Bliss excess", "setting": "EW-11 (Ewing's Sarcoma)", "value": -0.0106}, {"measurement": "Bliss excess", "setting": "[5]", "value": 0.0108}, {"measurement": "Bliss excess", "setting": "GAMG (Glioblastoma)", "value": 0.0368}, {"measurement": "Bliss excess", "setting": "[6]", "value": -0.0664}, {"measurement": "Bliss excess", "setting": "[7]", "value": 0.0339}, {"measurement": "Bliss excess", "setting": "[8]", "value": 0.0018}, {"measurement": "Bliss excess", "setting": "[9]", "value": 0.0046}, {"measurement": "Bliss excess", "setting": "LOXIMVI (Melanoma)", "value": 0.0256}, {"measurement": "Bliss excess", "setting": "[10]", "value": 0.111}, {"measurement": "Bliss excess", "setting": "NCI-H2052 (Mesothelioma)", "value": 0.0301}, {"measurement": "Bliss excess", "setting": "[11]", "value": -0.0778}, {"measurement": "Bliss excess", "setting": "[12]", "value": 0.0356}, {"measurement": "Bliss excess", "setting": "[13]", "value": 0.0034}, {"measurement": "Bliss excess", "setting": "[14]", "value": -0.0349}, {"measurement": "Bliss excess", "setting": "[15]", "value": -0.0214}, {"measurement": "Bliss excess", "setting": "[16]", "value": -0.003}]}
{"compound": "CN(CCO)CC[C@H](CSc1ccccc1)Nc1ccc(S(=O)(=O)NC(=O)c2ccc(N3CCC([C@@H](O)c4ccccc4-c4ccc(Cl)cc4)CC3)cc2)cc1S(=O)(=O)C(F)(F)F", "note": "[AZD4320] + CN(C)CCCOc1ccc(-c2ccc3ncc4c(c3c2)n(C2CCOCC2)c(=O)n4C)cn1 [AZD0156] (first compound max 1 µM, 7x7, partner max 1 µM)", "values": [{"measurement": "Bliss excess", "setting": "[1]", "value": 0.0031}, {"measurement": "Bliss excess", "setting": "[2]", "value": 0.009}, {"measurement": "Bliss excess", "setting": "[3]", "value": 0.007}, {"measurement": "Bliss excess", "setting": "[4]", "value": 0.039}, {"measurement": "Bliss excess", "setting": "EW-11 (Ewing's Sarcoma)", "value": -0.0102}, {"measurement": "Bliss excess", "setting": "[5]", "value": 0.0392}, {"measurement": "Bliss excess", "setting": "GAMG (Glioblastoma)", "value": -0.0237}, {"measurement": "Bliss excess", "setting": "[6]", "value": -0.0203}, {"measurement": "Bliss excess", "setting": "[7]", "value": -0.0539}, {"measurement": "Bliss excess", "setting": "[8]", "value": 0.0464}, {"measurement": "Bliss excess", "setting": "[9]", "value": -0.0259}, {"measurement": "Bliss excess", "setting": "LOXIMVI (Melanoma)", "value": 0.0015}, {"measurement": "Bliss excess", "setting": "[10]", "value": 0.106}, {"measurement": "Bliss excess", "setting": "NCI-H2052 (Mesothelioma)", "value": -0.0383}, {"measurement": "Bliss excess", "setting": "[11]", "value": 0.033}, {"measurement": "Bliss excess", "setting": "[12]", "value": -0.0513}, {"measurement": "Bliss excess", "setting": "[13]", "value": -0.015}, {"measurement": "Bliss excess", "setting": "[14]", "value": -0.0527}, {"measurement": "Bliss excess", "setting": "[15]", "value": -0.0302}, {"measurement": "Bliss excess", "setting": "[16]", "value": -0.028}]}
